Assays:
ErbB2 [1] = assay: ErbB2 pYtag (with EGFR-Citrine) in NIH 3T3 cells: clearance of cytosolic ZtSH2; type: cell-based; settings: NIH 3T3, required ITAMs on ErbB2 and co-expression of EGFR
Method: One advantage of the pYtag approach is its modularity: ITAMs can in principle be fused to the C-termini of many different RTKs and recruit ZtSH2 upon stimulation. Therefore, it was tested whether pYtags could be adapted to monitor the activity of receptors other than EGFR. pYtag biosensors were designed for two additional RTKs: 1) ErbB2, a ligandless member of the ErbB family that signals by heterodimerizing with ligand-bound EGFR; and 2) fibroblast growth factor receptor 1 (FGFR1), a non-ErbB family RTK. ErbB2 is a particularly challenging RTK to study because it can only be activated in conjunction with an additional RTK (e.g., EGFR), so Grb2-based biosensors would be unable to distinguish between the activity of EGFR and ErbB2.
Starting from NIH 3T3 cells expressing iRFP-ZtSH2, cell lines expressing either an ErbB2 pYtag (ErbB2-CD3ε-FusionRed), an FGFR1 pYtag (FGFR1-CD3ε-FusionRed), or ITAM-less variants of each were generated. For the ErbB2 case, cells with EGFR-Citrine were further transduced to express both required components of a functional receptor heterodimer (see FIG. 3, and FIGS. 4A-4B).
The pYtag approach is indeed modular, and this strategy can be readily adapted for monitoring the activation of distinct RTKs in individual cells.

EGFR and Erk signaling = assay: EGFR pYtag and ErkKTR in MCF10A clusters on soft substrata; type: cell-based, human
Method: At the tissue scale, the spatiotemporal distribution of RTK signaling can also be regulated by several processes including paracrine signaling, morphogen gradients, and the mechanical properties of the local microenvironment. It was therefore asked whether pYtags could be used to monitor RTK signaling in multicellular contexts.
To prepare polyacrylamide substrata, 1.5-mm-thick glass coverslips were pre-treated with glutaraldehyde. First, coverslips were treated with 0.1 N NaOH for 30 min, followed by rinsing with deionized water and air drying. Coverslips were then treated with 2% aminopropyltrimethoxysilane (Sigma Aldrich) in acetone for 30 min, washed three times with acetone, and left to air dry. Coverslips were treated with 0.5% glutaraldehyde (Sigma Aldrich) in PBS for 30 min, washed with deionized water, and left to air dry. Custom glass-bottom dishes were prepared by replacing the bottoms of 35 mm TCPS dishes with glutaraldehyde-treated coverslips, which were sealed using PDMS (Sigma Aldrich).
To investigate the dynamics of this spatial pattern, EGFR signaling was monitored using two live-cell biosensors: EGFR pYtag and a kinase translocation reporter for downstream signaling through Erk (ErkKTR).

ErbB2 [2] = assay: Multiplexed pYtags in NIH 3T3 cells: ErbB2 reporter (iRFP-ZtSH2; ErbB2-CD3ε-FusionRed); type: cell-based; settings: 100 ng/mL
Excerpt: Having characterized an orthogonal pair of pYtags, it was recognized that these biosensors could be used to simultaneously monitor the activation of both EGFR and ErbB2. NIH 3T3 cells that co-expressed pYtags for EGFR (Clover-VISH2; EGFR-SLP76-BFP) and ErbB2 (iRFP-ZtSH2; ErbB2-CD3ε-FusionRed) were generated. […] VISH2 cleared from the cytosol almost immediately (<30 sec), indicating rapid phosphorylation of the EGFR C-terminal tail. […] Although the absolute magnitude of tSH2 biosensor clearance varied between cell lines (likely due to differences in affinity and expression level), the dynamics of EGFR and ErbB2 activation were highly reproducible in all cases, irrespective of the cell line or pYtag.

EGFR = EGFR (Homo sapiens, UniProt P00533); assay: EGFR pYtag live-cell imaging: clearance of cytosolic ZtSH2 in NIH 3T3 cells
Excerpt: Six ITAMs from the CD3γ, CD3δ, CD3ε, and CD3ζ chains of the TCR. In each case, three identical repeats of the ITAM were fused to the C-terminal tail of EGFR followed by the FusionRed fluorescent protein (EGFR-ITAM-FusionRed). Each receptor was the co-expressed with an iRFP-labeled ZtSH2 (iRFP-ZtSH2) in NIH 3T3 fibroblasts, which express negligible levels of EGFR. […] Because ZtSH2 can in principle be recruited rapidly on and off the membrane and may localize to distinct subcellular compartments, it was reasoned that pYtags could be used to monitor the subcellular activity of an RTK in individual cells over time.

EGFR R84K or A265V = assay: pYtag response of GBM-associated mutant EGFRs in NIH 3T3 cells; type: cell-based, mouse; settings: 20 ng/ml, NIH 3T3 cells expressing R84K or A265V EGFR
Excerpt: To validate the prediction of our model, the dimerization affinity of EGFR was experimentally altered and signaling responses were monitored using pYtags. One can turn to glioblastoma multiform (GBM)-associated mutations in the extracellular domain of EGFR (R84K and A265V point mutations), which were previously shown to increase the dimerization affinity of EREG- and EPGN-bound receptors. These GBM-associated mutations were first modeled in EGFR by decreasing β and γ by 6-fold and 650-fold, respectively. […] NIH 3T3 cell lines expressing pYtag biosensors of EGFR variants harboring either the R84K or A265V mutation were then generated.
The data reveal ligand-dependent EGFR signaling dynamics at unprecedented temporal resolution and point to the dimerization affinity of ligand-bound receptors as a key parameter that governs these responses. More broadly, combining pYtags with mathematical modeling can shed mechanistic insight into the signaling dynamics of RTKs.

Substance | ZtSH2 response of ErbB2 pYtag-expressing cells (ErbB2 [1]) | Delay in EGFR and Erk signaling between periphery and interior of clusters (EGFR and Erk signaling) [min] | Delay of Erk responses behind EGFR responses (EGFR and Erk signaling) [min] | Time of ZtSH2 clearance from the cytosol (ErbB2 phosphorylation) (ErbB2 [2]) [min] | pYtag signaling response of WT EGFR (EGFR; 20 ng/ml, NIH 3T3 cells expressing WT EGFR) | EGFR activity dynamics after low-affinity ligand (EGFR; varying doses, NIH 3T3 EGFR pYtag) | pYtag signaling response of GBM-associated mutant EGFR (EGFR R84K or A265V)
EGF: epidermal growth factor, high-affinity EGFR ligand (NSDSECPLSHDGYCLHDGVCMYIEALDKYACNCVVGYIGERCQYRDLKWWELR; Epidermal growth factor; UniProt P01133 971-1023, looked up) | clearance of ZtSH2 from the cytosol | 2 to 4 | ~4 | ~3 |  |  | 
EREG: epiregulin, low-affinity EGFR ligand |  |  |  |  | transient peak of activation and rapid plateau | rapid rise in EGFR activity followed by a plateau within minutes | stronger response that gradually increased over time
